Key:
[1] = target: T1, IKACh (Kir3.1 and Kir3.4 protein channels) (Homo sapiens, UniProt P48544+P48549); assay: Patch clamp block of IKACh current in transfected HEK 293 cells; assay type: cell-based; conditions: for percentage block of IKACh current (outward component): 1 μM drug, HEK 293 cells transfected with Kir3.1/Kir3.4, barium sensitive current, 5 minute superfusion; for percentage block of IKACh current (FIG. 5, Compound A experiments): same manner and cell lines, concentration not given
T1 construct: expressed in transfected cells; host or cells: HEK 293 (human embryonic kidney cells)
T1 sequence (P48549 1-501): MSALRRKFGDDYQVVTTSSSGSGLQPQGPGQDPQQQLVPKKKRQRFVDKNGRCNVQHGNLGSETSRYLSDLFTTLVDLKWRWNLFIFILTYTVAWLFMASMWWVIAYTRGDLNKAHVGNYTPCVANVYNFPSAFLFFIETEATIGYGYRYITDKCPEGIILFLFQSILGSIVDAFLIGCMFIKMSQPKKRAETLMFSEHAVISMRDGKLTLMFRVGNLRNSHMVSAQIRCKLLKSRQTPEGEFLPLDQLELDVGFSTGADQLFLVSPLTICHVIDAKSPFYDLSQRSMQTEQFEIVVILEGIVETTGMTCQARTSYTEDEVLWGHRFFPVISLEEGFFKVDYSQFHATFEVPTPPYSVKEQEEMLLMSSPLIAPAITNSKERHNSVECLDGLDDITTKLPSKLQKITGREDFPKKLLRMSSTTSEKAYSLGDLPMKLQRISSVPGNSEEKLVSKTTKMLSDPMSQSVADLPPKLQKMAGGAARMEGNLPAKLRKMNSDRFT
T1 sequence (P48544 1-419): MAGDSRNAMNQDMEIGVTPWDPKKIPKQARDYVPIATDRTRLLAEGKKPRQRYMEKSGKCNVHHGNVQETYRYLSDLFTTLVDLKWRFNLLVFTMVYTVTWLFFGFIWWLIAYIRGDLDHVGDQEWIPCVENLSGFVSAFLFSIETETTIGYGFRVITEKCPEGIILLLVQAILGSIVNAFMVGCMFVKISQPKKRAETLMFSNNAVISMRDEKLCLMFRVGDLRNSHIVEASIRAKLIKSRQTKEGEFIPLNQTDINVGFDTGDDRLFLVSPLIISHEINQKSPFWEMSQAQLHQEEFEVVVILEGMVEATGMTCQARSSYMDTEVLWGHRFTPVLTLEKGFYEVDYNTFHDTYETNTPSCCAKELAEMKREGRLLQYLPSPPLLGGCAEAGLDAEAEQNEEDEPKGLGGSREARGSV
Description: FIG. 1: In patch clamp experiments, IKACh was measured in human embryonic kidney cells (HEK 293) transfected with IKACh.
The boxed area is the physiologically important outward component of the IKACh current. A magnification is shown. […] The traces are the barium sensitive currents.

[2] = target: IKr (hERG protein channel) (Homo sapiens, UniProt Q12809); conditions: 5 min
Sequence of IKr (hERG protein channel) (Q12809 whole entry): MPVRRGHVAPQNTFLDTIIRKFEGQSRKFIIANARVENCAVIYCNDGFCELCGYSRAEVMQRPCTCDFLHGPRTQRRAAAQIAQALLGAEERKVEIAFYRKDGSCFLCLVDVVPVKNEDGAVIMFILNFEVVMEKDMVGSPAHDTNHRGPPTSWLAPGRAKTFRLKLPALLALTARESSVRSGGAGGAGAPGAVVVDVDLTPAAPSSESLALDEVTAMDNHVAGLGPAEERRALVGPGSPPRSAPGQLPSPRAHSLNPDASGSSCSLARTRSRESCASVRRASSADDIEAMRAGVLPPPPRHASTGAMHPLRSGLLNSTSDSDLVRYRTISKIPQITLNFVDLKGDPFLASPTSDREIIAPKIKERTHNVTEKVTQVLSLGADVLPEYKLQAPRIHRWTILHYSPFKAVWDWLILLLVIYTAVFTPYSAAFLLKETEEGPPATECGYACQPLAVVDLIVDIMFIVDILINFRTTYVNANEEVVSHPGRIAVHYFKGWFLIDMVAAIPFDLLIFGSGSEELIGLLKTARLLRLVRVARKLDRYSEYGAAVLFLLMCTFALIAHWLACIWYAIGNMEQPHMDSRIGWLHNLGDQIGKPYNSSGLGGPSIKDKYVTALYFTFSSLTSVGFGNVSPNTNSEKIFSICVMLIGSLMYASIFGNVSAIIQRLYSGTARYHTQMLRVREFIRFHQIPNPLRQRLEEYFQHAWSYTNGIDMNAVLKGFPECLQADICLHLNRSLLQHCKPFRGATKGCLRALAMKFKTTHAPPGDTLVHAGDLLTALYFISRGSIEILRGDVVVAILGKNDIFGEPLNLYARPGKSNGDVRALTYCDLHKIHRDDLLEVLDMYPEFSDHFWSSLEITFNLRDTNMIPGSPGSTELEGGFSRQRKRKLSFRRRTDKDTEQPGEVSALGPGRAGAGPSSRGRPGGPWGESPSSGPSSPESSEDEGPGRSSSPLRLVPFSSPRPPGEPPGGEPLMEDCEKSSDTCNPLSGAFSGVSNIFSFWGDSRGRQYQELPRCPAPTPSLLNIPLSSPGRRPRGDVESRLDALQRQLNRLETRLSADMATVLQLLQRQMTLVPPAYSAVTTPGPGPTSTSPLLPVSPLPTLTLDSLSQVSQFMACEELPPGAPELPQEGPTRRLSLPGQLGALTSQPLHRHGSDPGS
Description: FIG. 2: IKr current was measured in Chinese hamster ovary cells (CHO) expressing the current.
The arrow denotes the tail current. Tail current is elicited by 3 second step voltage drop from +20 mV to −40 mV. The gray trace is the remaining current after total current block with E4031.
We used the conventional patch clamp method and human embryonic kidney cells transfected with Kir3.1 and Kir3.4 protein channels responsible for IKACh, or Chinese hamster ovary cells transfected with the hERG protein channel responsible for IKr. […] In order to elicit IKACh, the cells were subjected to a voltage protocol consisting of a 2 second ramp from −130 mV to 50 mV, from a holding potential of −40 mV. IKr tail current was elicited by a 3 second voltage drop step from 20 mV to −40 mV. The drugs were superfused over a 5 minute period into the chambers that hold the cells.

[3] = Compound A vs racemic chloroquine

Compound	percentage block of IKACh current (outward component) [1]	percentage block of IKACh current (FIG. 5, Compound A experiments) [1, 3]	further results
CCN(CC)CCC[C@@H](C)Nc1ccnc2cc(Cl)ccc12 [(R)-chloroquine, reference compound]	less than 13%		percentage block of IKACh current (outward component) ([1]; listed as distomer (R)): 14%±9
CCN(CC)CCC[C@H](Cc1ccccc1)Nc1ccnc2cc(Cl)ccc12 [Compound A]		110%±2.5	percentage block of IKr current (FIG. 5, Compound A experiments) [2]: 75%±5.7; IKACh block relative to chloroquine, in words [1, 3]: significantly better blocker of IKACh
CCN(CC)CCC[C@H](C)Nc1ccnc2cc(Cl)ccc12 [(S)-chloroquine]	more than 83%		percentage block of IKACh current (outward component) ([1]; listed as eutomer (S)): 83%±2
chloroquine [racemic chloroquine, reference compound]		52%±11	

From patent US20170258781A1, “ATRIAL SPECIFIC ANTIARRHYTHMICS FOR USE IN TREATING OR PREVENTING ATRIAL FIBRILLATION” (Tufts Medical Center, Inc., priority 2014, published 2017)
